Data on five compounds can be found in ChEMBL document CHEMBL1134717 (Bioorg Med Chem Lett, 2001).

Test [1] addresses Mu-type opioid receptor (Cavia porcellus, UniProt P97266). Put plainly: Binding affinity towards Opioid receptor mu 1 of guinea pig brain membranes using radioligand 0.25 nM [3H]DAMGO.
Test [2] concerns the target Kappa-type opioid receptor (Cavia porcellus, UniProt P41144). Put plainly: Binding affinity towards guinea pig Opioid receptor kappa 1 using radioligand [3H]U-69593.

Sequence of Mu-type opioid receptor (P97266 whole entry): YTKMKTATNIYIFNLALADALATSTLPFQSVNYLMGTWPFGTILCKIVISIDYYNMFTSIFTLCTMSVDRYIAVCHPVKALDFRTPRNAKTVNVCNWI
Sequence of Kappa-type opioid receptor (P41144 whole entry): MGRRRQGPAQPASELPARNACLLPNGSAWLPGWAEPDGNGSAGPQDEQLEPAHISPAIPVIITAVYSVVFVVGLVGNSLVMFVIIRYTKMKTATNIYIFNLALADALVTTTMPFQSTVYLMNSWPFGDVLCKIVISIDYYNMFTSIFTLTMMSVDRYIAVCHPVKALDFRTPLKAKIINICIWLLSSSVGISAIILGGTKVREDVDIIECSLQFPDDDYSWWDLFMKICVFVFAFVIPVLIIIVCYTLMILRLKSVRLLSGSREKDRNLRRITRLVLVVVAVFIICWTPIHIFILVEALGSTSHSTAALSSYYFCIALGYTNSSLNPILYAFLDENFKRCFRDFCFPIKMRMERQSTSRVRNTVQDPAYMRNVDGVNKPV

Regarding `CN1CC[C@]23c4c5ccc(C(N)=O)c4OC2C(O)C=C[C@H]3[C@H]1C5` (stereo partly drawn), the Ki in test [1] worked out at 0.034 µM; in test [2], 2 µM.
On to `CNC(=O)c1ccc2c3c1OC1C(O)C=C[C@H]4[C@@H](C2)N(C)CC[C@]314` (stereo partly drawn), for which the values for the Ki in test [1] and in test [2] were 0.44 µM and above 10 µM, respectively.
As for `CN(C)C(=O)c1ccc2c3c1OC1C(O)C=C[C@H]4[C@@H](C2)N(C)CC[C@]314` (stereo partly drawn), the Ki in test [2] is above 10 µM.
For `NC(=O)c1ccc2c3c1O[C@H]1C(=O)CC[C@@]4(O)[C@@H](C2)N(CC2CC2)CC[C@]314`, the Ki in test [1] was determined as 0.0019 µM; in test [2] it was 0.022 µM.
`C[C@H]1[C@H]2Cc3ccc(O)cc3[C@]1(C)CCN2CC1CC1` [CYCLAZOCINE]: the Ki in test [2] was 0.00018 µM. In other words, the sub-nanomolar range.

By Ki is commonly meant a measure of affinity in units of concentration, obtained from inhibition or displacement. Read a low Ki as higher affinity.
